{"source": "patent US20150225380A1", "about": "“Novel Method to Obtain Olmesartan Medoxomil With Reduced Particle Size” (LUPIN LIMITED, priority 2012, published 2015)", "key": {"[1]": {"assay": "Particle size distribution, Malvern Hydro2000S (A)", "type": "physicochemical", "conditions": "crystals of Example 1, seeded crystallisation from acetone, no milling", "protocol": "The particle size distribution of olmesartan medoxomil (I) is measured utilizing: Instrument model: Malvern; Dispersion unit: Hydro2000S (A); Particle refraction index of sample: 1.427; Absorption: 0.1; Dispersant refraction index: 1.468 and Size range: 0.020-2000 μm."}, "[2]": {"assay": "Minimum ignition energy and powder resistivity of the powder", "type": "physicochemical", "conditions": "observed by the present inventors; process safety for milling"}}}
{"molecule": "CCCc1nc(C(C)(C)O)c(C(=O)OCc2oc(=O)oc2C)n1Cc1ccc(-c2ccccc2-c2nnn[nH]2)cc1", "note": "[olmesartan medoxomil, 4-(1-hydroxy-1-methylethyl)-2-propyl-1-[[2′-(1H-tetrazol-5-yl) [1, 1′-biphenyl]-4-yl]methyl]-1H-imidazole-5-carboxylic acid (5-methyl-2-oxo-1,3-dioxol-4-yl)methyl ester]", "values": [{"measurement": "particle size distribution d10", "setting": "[1]", "result": 0.984, "unit": "μm"}, {"measurement": "particle size distribution d50", "setting": "[1]", "result": 8.484, "unit": "μm"}, {"measurement": "particle size distribution d90", "setting": "[1]", "result": 18.756, "unit": "μm"}, {"measurement": "minimum ignition energy", "setting": "[2]", "result": "less than 3 mJ"}, {"measurement": "powder resistivity", "setting": "[2]", "result": "very high"}]}
